Measurements published in ChEMBL document CHEMBL2157860, “Optimization of a potent class of arylamide colony-stimulating factor-1 receptor inhibitors leading to anti-inflammatory clinical candidate 4-cyano-N-[2-(1-cyclohexen-1-yl)-4-[1-[(dimethylamino)acetyl]-4-piperidinyl]phenyl]-1H-imidazole-2-carboxamide (JNJ-28312141)” (J Med Chem, 2011).
In brackets after ≈: the same amount, converted by molar mass.

Tests used:
[1] = Metabolic stability in mouse liver microsomes assessed as compound remaining after 10 mins; type: ADME, Microsome; conditions: read-out: Stability
[2] = Metabolic stability in human liver microsomes assessed as compound remaining after 10 mins; type: ADME, Microsome; conditions: read-out: Stability
[3] = Solubility of the compound in PBS; type: physicochemical
[4] = (§1) Apparent volume of distribution in CD1 mouse at 0.5 mg/kg, iv; type: ADME, organism-based; parameters: dose 0.5 mg/kg, route intravenous; conditions: CD1, mouse, in vivo, read-out: Vz
[5] = Clearance in CD1 mouse at 0.5 mg/kg, iv; type: ADME, organism-based; parameters: dose 0.5 mg/kg, route intravenous; conditions: in vivo
[6] = Cmax in CD1 mouse at 5 mg/kg, po; type: ADME, organism-based; parameters: dose 5 mg/kg, route oral; conditions: in vivo
[7] = Oral bioavailability in CD1 mouse at 5 mg/kg; type: ADME, organism-based; conditions: in vivo
[8] = (§2) Half life in CD1 mouse at 0.5 mg/kg, iv; type: ADME, organism-based; parameters: dose 0.5 mg/kg, route intravenous; conditions: CD1, mouse, in vivo
[9] = AUClast in CD1 mouse at 5 mg/kg, po; type: ADME, organism-based; parameters: time 0 - last, dose 5 mg/kg, route oral; conditions: plasma
[10] = Half life in CD1 mouse at 5 mg/kg, po; type: ADME, organism-based; parameters: dose 5 mg/kg, route oral; conditions: in vivo
[11] = Tmax in CD1 mouse at 5 mg/kg, po; type: ADME, organism-based; parameters: dose 5 mg/kg, route oral; conditions: in vivo
[12] = Drug uptake in CD1 mouse at 5 mg/kg, po after 4 hrs; type: ADME, organism-based; parameters: dose 5 mg/kg, route oral; conditions: in vivo, read-out: Drug uptake
[13] = (§3) Drug uptake in CD1 mouse at 5 mg/kg, po after 8 hrs; type: ADME, organism-based; parameters: dose 5 mg/kg, route oral; conditions: CD1, mouse, in vivo, read-out: Drug uptake
Mus musculus [14] = assay: as §1; type: ADME, organism-based; parameters: dose 0.5 mg/kg, route intravenous; conditions: mouse, in vivo
Mus musculus [15] = assay: as §2; type: ADME, organism-based; parameters: dose 0.5 mg/kg, route intravenous; conditions: mouse, in vivo
Liver = assay: Metabolic stability in mouse liver microsomes assessed as glutathione conjugation at 20 to 40 uM after 1 hr by LC/MS analysis; type: ADME, Microsome
Mus musculus [16] = assay: as §3; type: ADME, organism-based; parameters: dose 5 mg/kg, route oral; conditions: mouse, in vivo, 8 h, BLD = below limit of detection

| SMILES | remaining at 10 min [1] [%] | remaining at 10 min [2] [%] | solubility [3] [µM] | Vd [4] [L/kg] | clearance [5] [mL/min/kg] | Cmax [6] [ng/mL] | bioavailability [7] [%] | half-life [8] [h] | AUC(0-t) [9] [ng·h/mL] | half-life [10] [h] | other results |
| --- | --- | --- | --- | --- | --- | --- | --- | --- | --- | --- | --- |
| N#Cc1c[nH]c(C(=O)Nc2ccc(C3CCN(C(N)=O)CC3)cc2C2=CCCCC2)n1 | 70 | 78 | – | – | – | – | – | – | – | – | – |
| N#Cc1c[nH]c(C(=O)Nc2ccc(C3CCN(C(=O)CN4CCOCC4)CC3)cc2C2=CCCCC2)n1 | 23 | 66 | – | – | – | – | – | – | – | – | – |
| N#Cc1c[nH]c(C(=O)Nc2ccc(C3CCN(C(CO)CO)CC3)cc2C2=CCCCC2)n1 | 94 | 100 | – | – | – | – | – | – | – | – | – |
| N#CCCN1CCC(c2ccc(NC(=O)c3nc(C#N)c[nH]3)c(C3=CCCCC3)c2)CC1 | 93 | 100 | 11.8 (≈ 5.06 µg/mL) | – | – | – | – | – | – | – | – |
| N#Cc1c[nH]c(C(=O)Nc2ccc(C3CCN(c4ccccn4)CC3)cc2C2=CCCCC2)n1 | 77 | 77 | – | – | – | – | – | – | – | – | – |
| N#Cc1c[nH]c(C(=O)Nc2ccc(C3CCN(C(=O)CCN4CCOCC4)CC3)cc2C2=CCCCC2)n1 | 23 | 57 | – | – | – | – | – | – | – | – | – |
| CS(=O)(=O)CCN1CCC(c2ccc(NC(=O)c3nc(C#N)c[nH]3)c(C3=CCCCC3)c2)CC1 | 98 | 94 | 4.2 (≈ 2.02 µg/mL) | 3.84 | 30.7 | 866 | 88 | 1.44 | 2130 | 1.55 | – |
| CC1CCN(c2cc(N3CCN(C)CC3)ccc2NC(=O)c2ccc(C#N)o2)CC1 | – | – | – | 12.3 | 46 | 285 | 75 | 3 | 1160 | 3.1 | Tmax [11]: 0.5 h; concentration at 4 h [12]: 183 ng/mL; concentration at 8 h [13]: 64 ng/mL |
| N#Cc1c[nH]c(C(=O)Nc2ccc(C3CCN(C(=O)Cc4cccnc4)CC3)cc2C2=CCCCC2)n1 | 21 | 28 | 10.4 (≈ 5.14 µg/mL) | – | – | – | – | – | – | – | – |
| N#Cc1c[nH]c(C(=O)Nc2ccc(C3CCN(C(=O)Cc4ccccn4)CC3)cc2C2=CCCCC2)n1 | 37 | 34 | 1.6 (≈ 0.791 µg/mL) | – | – | – | – | – | – | – | – |
| N#Cc1c[nH]c(C(=O)Nc2ccc(C3CCN(C(=O)[C@H](O)CO)CC3)cc2C2=CCCCC2)n1 | 100 | 89 | – | – | – | – | – | – | – | – | – |
| N#Cc1c[nH]c(C(=O)Nc2ccc(C3CCN(CCN4CCOCC4)CC3)cc2C2=CCCCC2)n1 | 96 | 77 | 25.9 (≈ 12.7 µg/mL) | – | – | 461 | 101 | – | 1550 | 2.37 | Vz (Mus musculus [14]): 8.99 L/kg; t1/2 (Mus musculus [15]): 0.23 h |
| CN(CCO)CC(=O)N1CCC(c2ccc(NC(=O)c3nc(C#N)c[nH]3)c(C3=CCCCC3)c2)CC1 | 60 | 69 | – | – | – | – | – | – | – | – | – |
| CC(C)(N)C(=O)N1CCC(c2ccc(NC(=O)c3nc(C#N)c[nH]3)c(C3=CCCCC3)c2)CC1 | 93 | 94 | – | – | – | – | – | – | – | – | – |
| N#Cc1c[nH]c(C(=O)Nc2ccc(C3CCN(C(=O)NCCO)CC3)cc2C2=CCCCC2)n1 | 61 | 80 | 8.2 (≈ 3.79 µg/mL) | 10.3 | 49.2 | 24 | 9.3 | 2.41 | 129 | 1.63 | – |
| N#Cc1c[nH]c(C(=O)Nc2ccc(C3CCN(C(=O)Cc4c[nH]cn4)CC3)cc2C2=CCCCC2)n1 | 100 | 89 | – | – | – | – | – | – | – | – | – |
| N#Cc1c[nH]c(C(=O)Nc2ccc(C3CCN(C(=O)c4ccc[n+]([O-])c4)CC3)cc2C2=CCCCC2)n1 | 89 | 100 | – | – | – | – | – | – | – | – | – |
| CC(=O)N1CCC(c2ccc(NC(=O)c3nc(C#N)c[nH]3)c(C3=CCCCC3)c2)CC1 | 86 | 95 | 26.1 (≈ 10.9 µg/mL) | 2.8 | 27 | 209 | 15 | 1.2 | 454 | 1.88 | Tmax [11]: 0.5 h; Stability (Liver): Stable; concentration at 4 h [12]: 54 ng/mL; concentration at 8 h [13]: 9 ng/mL |
| CN(C)CC(=O)N1CCC(c2ccc(NC(=O)c3nc(C#N)c[nH]3)c(C3=CCCCC3)c2)CC1 | 81 | 87 | 37.3 (≈ 17.2 µg/mL) | 7.11 | 60.6 | 296 | 83 | 1.36 | 1020 | 2.33 | – |
| N#Cc1c[nH]c(C(=O)Nc2ccc(C3CCN(C(=O)c4cc[n+]([O-])cc4)CC3)cc2C2=CCCCC2)n1 | 92 | 100 | – | – | – | – | – | – | – | – | – |
| N#Cc1c[nH]c(C(=O)Nc2ccc(C3CCN(CCO)CC3)cc2C2=CCCCC2)n1 | 89 | 100 | > 40 | – | – | – | – | – | – | – | – |
| N#Cc1c[nH]c(C(=O)Nc2ccc(C3CCNCC3)cc2C2=CCCCC2)n1.O=C(O)C(F)(F)F | 96 | 100 | 38.8 | 32 | 51.7 | 50 | 12 | 7.16 | 95.2 | 2 | Tmax [11]: 0.25 h; Stability (Liver): Stable; concentration at 4 h [12]: 7 ng/mL; Drug uptake (Mus musculus [16]): BLD |
| N#Cc1c[nH]c(C(=O)Nc2ccc(C3CCN(C(=O)Cc4ccncc4)CC3)cc2C2=CCCCC2)n1 | 24 | 11 | 0.39 (≈ 0.193 µg/mL) | 7.27 | 205 | 118 | 18 | 0.41 | 68 | 0.23 | – |
| N#Cc1c[nH]c(C(=O)Nc2ccc(C3CCN(CC(=O)O)CC3)cc2C2=CCCCC2)n1 | 70 | 98 | – | – | – | – | – | – | – | – | – |
| N#Cc1c[nH]c(C(=O)Nc2ccc(C3CCN(Cc4ccccn4)CC3)cc2C2=CCCCC2)n1 | 79 | 75 | – | – | – | – | – | – | – | – | – |
| N#Cc1c[nH]c(C(=O)Nc2ccc(C3CCN(C(=O)CNCCO)CC3)cc2C2=CCCCC2)n1 | 79 | 67 | – | – | – | – | – | – | – | – | – |
| N#Cc1c[nH]c(C(=O)Nc2ccc(C3CCN(C(=O)c4cccnc4)CC3)cc2C2=CCCCC2)n1 | 66 | 56 | – | – | – | – | – | – | – | – | – |
| N#Cc1c[nH]c(C(=O)Nc2ccc(C3CCN(CC(N)=O)CC3)cc2C2=CCCCC2)n1 | 79 | 81 | 28.6 (≈ 12.4 µg/mL) | 6.43 | 53.3 | 55 | 9.8 | 1.39 | 141 | 0.88 | – |
| Cn1cnc(CC(=O)N2CCC(c3ccc(NC(=O)c4nc(C#N)c[nH]4)c(C4=CCCCC4)c3)CC2)c1 | 90 | 82 | 36.7 (≈ 18.3 µg/mL) | 3.85 | 81.8 | 81 | 13 | 0.54 | 101 | 0.4 | – |
| CS(=O)(=O)CC(=O)N1CCC(c2ccc(NC(=O)c3nc(C#N)c[nH]3)c(C3=CCCCC3)c2)CC1 | 86 | 100 | 0.91 (≈ 0.451 µg/mL) | 1.58 | 23.9 | 24 | 2.3 | 1.2 | 125 | 1.55 | – |
